Experimental data: paper PMC3653948, “PDZ Domain-Mediated Interactions of G Protein-Coupled Receptors with Postsynaptic Density Protein 95: Quantitative Characterization of Interactions” (PLoS ONE, 2013)
Peptide text beside a SMILES is read from it.

Key:
PSD-95 PDZ1 = target: T1, PSD-95 PDZ1 (Homo sapiens, UniProt P78352); assay: SPR steady-state binding to immobilized PSD-95 PDZ1
T1 construct: PSD-95 PDZ1 (aa 61–151); made in house; host or cells: E. coli One Shot BL21 Star (DE3)
From the text: (§1) To confirm the affinities measured by FP using an orthogonal method and to get information about the kinetics of the GPCR–PDZ interactions, we used SPR. This label-free, surface sensitive technique measures the binding of a ligand to an immobilized protein as a function of time based on refractive index changes.
(§2) For each of the PSD-95 PDZ domains, we determined the K d and the stability of the complexes for selected GPCR C-tail peptides. The residence time τ ( = 1/k d) was used as a convenient measure of the stability of the complexes. […] The K d determined from the steady-state responses of a range of C-tail peptide concentrations (Figure 2B and Table S4) correlated well with the K i values obtained by FP (Figure S1).
(§3) A Biacore X100 (GE Healthcare) SPR instrument equilibrated to 25.0°C and equipped with a Sensor Chip CM5 (for PDZ1 and PDZ2) or CM4 (for PDZ3) (GE Healthcare) was used for the SPR measurements. The running buffer was HBS-EP+ (10 mM HEPES pH 7.4, 150 mM NaCl, 3 mM EDTA, 0.05% Surfactant P-20 (GE Healthcare)).
PDZ domains were immobilized by amine coupling at a flow rate of 5 µl/min on a surface activated by a 7 min injection of a 1∶1 mixture of 0.4 M 1-ethyl-3-(3-dimethylaminopropyl) carbodiimide (EDC) and 0.1 M N-hydroxysuccinimide (NHS). The remaining active groups were deactivated by a 7 min injection of 1 M ethanolamine HCl pH 8.5. 750 RU PDZ1, 780 RU PDZ2, and 410 RU PDZ3 were immobilized.
GPCR C-tail peptide samples were injected in increasing concentrations for 1 min with 1 min dissociation time at 30 µl/min. Reproducibility was tested by injecting the 20 µM sample again after the highest concentration sample. The binding curves were corrected by subtraction of buffer blanks and the response from a reference surface that was activated with EDC and NHS and deactivated with ethanolamine like the surface with immobilized PDZ domain. For peptides with a cysteine, 1 mM dithiothreitol (DTT) was added to the samples. Steady-state response curves were plotted from the responses 10 s before injection end. The K d was determined by fitting steady-state response curves to a 1∶1 binding model with a linear component to corrrect for low affinity binding, probably resulting from the immobilization: Y = Ymax × X/(X+K d)+B × X.

PSD-95 PDZ2 = target: T2, PSD-95 PDZ2 (Homo sapiens, UniProt P78352); assay: SPR steady-state binding to immobilized PSD-95 PDZ2
T2 construct: PDZ2 (aa 155–249); made in house; host or cells: E. coli One Shot BL21 Star (DE3)
From the text: as §1, §2
as §3, with “Healthcare)). […]” for “Healthcare)).”
(§4) GPCR C-tail peptide samples were injected in increasing concentrations for 1 min with 1 min dissociation time at 30 µl/min. […] The K d was determined by fitting steady-state response curves to a 1∶1 binding model with a linear component to corrrect for low affinity binding, probably resulting from the immobilization: Y = Ymax × X/(X+K d)+B × X.

PSD-95 PDZ3 = target: T3, PSD-95 PDZ3 (Homo sapiens, UniProt P78352); assay: SPR steady-state binding to immobilized PSD-95 PDZ3
T3 construct: made in house; host or cells: E. coli One Shot BL21 Star (DE3)
From the text: as §1, §2
as §3, with “Healthcare)). […]” for “Healthcare)).”
as §4

PSD-95 PDZ domains = assay: Time-resolved SPR, PSD-95 PDZ domains (kinetics); format: binding; conditions: 500 µM C-tail peptide, all three PDZ domains
From the text: as §2
For all combinations of PDZ domains and GPCR C-tail peptides, we observed dissociation of the complexes within the first second of the dissociation phase (Figure 2A) (faster than the time-resolution of the instrument), meaning that τ is less than 1 s (k d >1 s^−1). This implies that the GPCR–PDZ complexes are very transient, which is in agreement with previous work.
A Biacore X100 (GE Healthcare) SPR instrument equilibrated to 25.0°C and equipped with a Sensor Chip CM5 (for PDZ1 and PDZ2) or CM4 (for PDZ3) (GE Healthcare) was used for the SPR measurements. […]
as §4

PSD-95 = assay: FP competition assay, PSD-95 PDZ domains overall (strongest binding domain / non-binders); conditions: FP competition with the isolated PDZ domains, peptide typically 1–512 µM
Method: We used a competition set-up, where a constant concentration of isolated PSD-95 PDZ domain and a labeled reference ligand was titrated with unlabeled peptides from the GPCR C-tail library, typically within a 1–512 µM concentration range, and the resulting curves were fitted to obtain the IC50, which was used to calculate the K i (Figure 1). Three Cy5-labeled peptides with well-documented interactions with PSD-95 were used as reference ligands for the competition assay: Cy5-KIF1Bα was used for PDZ1 [20], Cy5-GluN2B (formerly known as NR2B) was used for PDZ2 and PDZ1-2 [21], and Cy5-CRIPT was used for PDZ3 [22] (Table S1). Competition with unlabeled versions of the reference ligands was used to validate the FP assay by comparison with the literature (Table S2).
FP measurements were performed in black, flat bottom 384-well NBS microplates (Corning) on a Synergy H4 microplatereader (BioTek Instruments) equipped with a 620/40 nm excitation filter, a 680/30 nm emission filter, and a 660 nm dichroic mirror. Polarization values were corrected with blank samples and samples with fluorescent probe alone. At least 10 data points were measured for each curve, and each data point was measured in triplicate. 25 nM Cy5-labeled probe was used for each assay: Cy5-KIF1Bα for PDZ1, Cy5-GluN2B for PDZ2 and PDZ1-2, and Cy5-CRIPT for PDZ3. All FP measurements were performed in a buffer containing 10 mM HEPES pH 7.4, 150 mM NaCl, and 1% BSA and incubated at least 15 min at room temperature before reading. The signal was stable for more than an hour, showing that the reaction was at equilibrium.
For the competition binding curves, probe was mixed with a constant concentration of PDZ protein corresponding to the K d and a twofold dilution series of unlabeled peptide in a total volume of 30 µl. The baseline was determined using a sample containing only probe. The IC50 was determined by fitting to a 1∶1 binding model: Y = Ymax − Ymax × X/(X+IC50). The K i was calculated from the IC50 and from the K d for the interaction between the PDZ protein and the probe as described previously.

CC[C@H](C)[C@H](NC(=O)[C@H](CO)NC(=O)[C@H](CO)NC(=O)[C@H](CCC(=O)O)NC(=O)[C@@H](NC(=O)[C@H](Cc1c[nH]c2ccccc12)NC(=O)[C@H](C)NC(=O)[C@H](CCCNC(=N)N)NC(=O)[C@H](CCCNC(=N)N)NC(=O)[C@H](CC(=O)O)NC(=O)[C@@H](N)CC(=O)O)[C@@H](C)O)C(=O)N[C@@H](CC(N)=O)C(=O)N[C@H](C(=O)O)[C@@H](C)O (H-DDRRAWTESSINT-OH; N-terminus assumed)
Kd (PSD-95 PDZ1): > 1 mM | Kd (PSD-95 PDZ2): > 1 mM | Kd (PSD-95 PDZ3): > 1 mM | Time-resolved binding to PSD-95 PDZ1, PDZ2 and PDZ3 by SPR (PSD-95 PDZ domains): did not interact | Interaction with PSD-95 using fluorescence polarization (PSD-95): not to interact
